The values that follow come from US7405222B2, “Methods and compositions for treatment of erectile dysfunction” (Modular Properties, Ltd., priority 2002, dated 2008).

In series [1] the test system is male erectile dysfunction. The note with it: intranasal; cited from earlier work.
For series [2], the system named is male erectile dysfunction. The note with it: monotherapy or combination as stated; cited from earlier work.
On series [3], the source says:
Suitable pharmaceutical vehicles are well known to those skilled in the art and are described in several manuals, including Remington's Pharmaceutical Sciences, 15th edition. […] Similarly, formulations containing PGE1, papaverine, phentolamine and atropine, should be kept under refrigeration.

In series [4] the test system is male erectile dysfunction. The note with it: in vivo; cited from earlier work.
For series [5] the following is noted: in vivo; cited from earlier work.

For the compound `CCCc1nn(C)c2c(=O)[nH]c(-c3cc(S(=O)(=O)N4CCN(C)CC4)ccc3OCC)nc12` [sildenafil], the “time to response in producing an erection” value in series [1] is reported as “within five minutes”.
As for `COc1ccc(Cc2nccc3cc(OC)c(OC)cc23)cc1OC` [papaverine], in series [2], the erectile response entry is “unpredictable response”.
On to `Cc1ccc(N(CC2=NCCN2)c2cccc(O)c2)cc1` [Phentolamine, phentolamine], for which the erectile response result in series [2] was “does not reliably produce an erection sufficient for intercourse”.
Turning to `CCCCC[C@H](O)/C=C/[C@H]1[C@H](O)CC(=O)[C@@H]1CCCCCCC(=O)O` [PGE1, Prostaglandin E1], the stability in storage entry in series [3] is on record as “not stable in water at room temperature”. Moreover, the “subjects with significant pain” value in series [4] is “up to 40%”. The half life entry in series [5] was “short half life compared with papaverine and phentolamine”.
